According to patent US20220313658A1, “YAP Inhibition for Wound Healing” (The Board of Trustees of the Leland Stanford Junior …, priority 2019, published 2022):

Experiments:
ENFs = ENFs cultured on stiff tissue culture plastic (TCPS) with ROCK inhibitor: En-1 activation; type: cell-based, mouse; details: bulk ENFs on stiff TCPS with ROCK inhibitor, 14 days in culture
Text: (§1) Mice were euthanized by CO2 narcosis and cervical dislocation, the dorsal fur was clipped, a depilatory cream was applied topically to the dorsum for 30 seconds. Next, the dorsal skin was harvested using dissecting scissors by separation along fascial planes, the subcutaneous fat was trimmed with a scalpel, and the skin was rinsed in betadine, followed by 5 rinses in cold PBS. To achieve a cell suspension, the harvested skin was finely minced using sharp scissors, enzymatically digested (Liberase DL, 0.5 mg/mL, 1 hour), and filtered through a 40 μm nylon mesh. ENFs and EPFs were isolated from En-1^Cre;R26^mTmG mice (En-1 lineage-negative cells, mTomato^+; En-1 lineage-positive cells, GFP^+) via a previously reported FACS strategy. Briefly, a lineage gate (Lin) for hematopoietic (CD45, Ter-119), endothelial (CD31, Tie2), and epithelial (CD326, CD324) cell markers was used as a negative gate to isolate fibroblasts (Lin^−), which were sorted into ENFs (Tornato^+GFP^−Lin^−) and EPFs (Tomato^−GFP+ Lin^−). To isolate ENF subpopulations, dorsal skin cells were harvested from P1 En-1^Cre,Ai6 mice (En-1 lineage-negative cells, no fluorescence; En-1 lineage-positive cells, GFP^+) via mechanical and enzymatic digestion as described above. […]

[1] = system: reticular dermal (Dlk1^+) ENFs; assay: Fractionated ENF subpopulations cultured on TCPS with or without ROCK inhibitor; type: cell-based, mouse; details: 14 days, ROCK inhibitor added
Text: as §1

With C[C@@H](N)[C@H]1CC[C@H](C(=O)Nc2ccncc2)CC1 [Y-27632] the “En-1 activation (conversion of ENFs to GFP+ EPFs)” value (ENFs) was “lack of En-1 activation” and the “En-1 activation in Dlk1+ ENFs” value [1] was “blocked”.
